Data taken from patent publication US11952325B1, “5,5′-naphthalene-1,5-diylbis(diazene-2,1-diyl)bis(2-hydroxybenzaldehyde) as an antioxidant compound” (KING FAISAL UNIVERSITY, priority 2023, dated 2024).

Test: DPPH radical scavenging antioxidant test
Type: biochemical
Details: 517 nm; for Inhibition (radical scavenging inhibition): 0.2 mL DPPH (0.75 mM), compound 3 μM in ethanol, 30 min incubation in the dark
Procedure: The antioxidant activity of 5,5′-naphthalene-1,5-diylbis(diazene-2,1-diyl)bis(2-hydroxybenzaldehyde) was investigated by 2,2-diphenyl-1-picrylhydrazyl (DPPH) in vitro tests that employ vitamin C as the positive control.
The antioxidant properties of the 5,5′-naphthalene-1,5-diylbis(diazene-2,1-diyl)bis(2-hydroxybenzaldehyde) were studied by adding 0.2 mL DPPH (0.75 mM)) to compound 5,5′-naphthalene-1,5-diylbis(diazene-2,1-diyl)bis(2-hydroxybenzaldehyde) (III) (3 μM) in ethanol. After 30 min of incubation in the dark, the absorbance was read against a blank at 517 nm. Ascorbic acid (vitamin C) was used as standard antioxidants (positive control). A blank sample was prepared by 0.2 ml of DPPH in 3 ml ethanol. A negative control sample was run using ethanol instead of the sample. The radical scavenging inhibition was calculated using the following equation: […]
The antioxidant activity for the synthesized compound is listed in Table 1, using Vitamin C as a reference.

Compound	Inhibition (radical scavenging inhibition) [%]	antioxidant potential compared to vitamin C (vanishing DPPH radical colors) (DPPH in vitro test, vitamin C as positive control)
O=C1O[C@H]([C@@H](O)CO)C(O)=C1O [vit c, Ascorbic acid, reference compound]	74	
O=Cc1cc(/N=N\c2cccc3c(/N=N/c4ccc(O)c(C=O)c4)cccc23)ccc1O [Product III, 5,5′-naphthalene-1,5-diylbis(diazene-2,1-diyl)bis(2-hydroxybenzaldehyde)]	54	high potential as an antioxidant
